Reference: paper PMC7098370 (Toxicological Sciences, 2020)
Where two headings read alike, the source gives them in different places.

Assays:
[1] = system: rats; experiment: Acute oral toxicity testing; assay type: in vivo, rat
[2] = Bioelution in simulated gastric fluid; settings: for Bioelution of Co in gastric fluid (% release), 2 h / Bioelution of Co in gastric fluid / cobalt release (µg Co/g sample), 2 h: simulated gastric fluid pH 1.5, 2 h, 37°C
[3] = Bioelution in simulated intestinal fluid; settings: for Bioelution of Co in intestinal fluid (% release) / Bioelution of Co in intestinal fluid / cobalt release (µg Co/g sample): simulated intestinal fluid pH 7.4, 24 h
[4] = Plasma toxicokinetic study; assay type: in vivo, rat; settings: for C max / K el / t 1/2 / Bioavailability (relative): 300 mg test item/kg PO; for Bioavailability (relative): vs CoCl2 IV; for Bioavailability calculated from AUC as % of CoCl2 IV AUC, average of m + f: relative bioavailability: oral, average of males and females
[5] = system: rats; settings: oral, ref Domingo et al. (1984), cited from earlier work
[6] = system: Crl:CD(SD) rats; experiment: Combined RDT study with reproduction/developmental toxicity screening test; assay type: in vivo, rat; settings: oral gavage
[7] = listed as Co Sulfate Heptahydrate

In the case of `[Li+].[O]=[Co][O-]` [CoLiO2, Cobalt lithium oxide], the “Acute LD50 (mg Co/kg bw)” value ([1]; OECD 401 or 425) is reported as greater than 3011 mg Co/kg bw, the “Acute LD50 (mg substance/kg bw)” value ([1]; OECD 401 or 425, listed as Co Lithium Dioxide) is reported as greater than 5000 mg substance/kg bw and the “Bioelution of Co in gastric fluid (% release), 2 h” value (“Bioelution of Co … (% release), 2 h” below) [2] is reported as 5.9 % release. The “Bioelution of Co in intestinal fluid (% release)” value [3] was 0.02 (24 h) % release, the “Bioelution of Co in intestinal fluid / cobalt release (µg Co/g sample)” value ([3]; listed as Co Lithium Dioxide) was 134 (24 h) µg Co/g sample and the C max ([4]; females) was 2.88 µg/L. For the same compound, the K el ([4]; females) was 0.0568 h⁻¹, the “t 1/2” value ([4]; females) was 12.20 h and the “Bioavailability (relative)” value ([4]; females) was 0.25 (relative) %. For the same compound, the “Bioavailability (relative)” value ([4]; females, listed as Co lithium dioxide) was 0.25%, the C max ([4]; males) was 3.45 µg/L and the K el ([4]; males) was 0.0535 h⁻¹. The “t 1/2” value ([4]; males) was 13.0 h, the “Bioavailability (relative)” value ([4]; males) was 0.30 (relative) % and the “Bioavailability (relative)” value ([4]; males, listed as Co lithium dioxide) was 0.3%. For the same compound, the “Bioavailability calculated from AUC as % of CoCl2 IV AUC, average of m + f: relative bioavailability” value ([4]; rats) was “Relative bioavailability 0.28%”.

In the case of `[O]=[Co][OH]` [CoOOH, Cobalt oxyhydroxide], the “Bioelution of Co … (% release), 2 h” value [2] is reported as 0.85 % release, the “Bioelution of Co in gastric fluid / cobalt release (µg Co/g sample), 2 h” value ([2]; listed as Co Oxide Hydroxide) is reported as 4460 µg Co/g sample and the “Bioelution of Co in intestinal fluid (% release)” value [3] is reported as 0.06 (24 h) % release. The “Bioelution of Co in intestinal fluid / cobalt release (µg Co/g sample)” value ([3]; listed as Co Oxide Hydroxide) was 370 (24 h) µg Co/g sample.

In the case of `O.O.O.O.O.O.O.O=S(=O)([O-])[O-].[Co+2]` [CoSO4, Cobalt sulfate heptahydrate], the “Bioelution of Co … (% release), 2 h” value [2] is given as 99.7 % release, the “Acute LD50 (mg Co/kg bw)” value [5] is given as 65 mg Co/kg bw and the “Acute LD50 (mg substance/kg bw)” value [5] is given as “below 1000 mg substance/kg bw”. For the same compound, the “Acute LD50 (mg substance/kg bw)” value [5, 7] was 310 [Domingo et al. (1984)] mg substance/kg bw, the “Bioelution of Co in intestinal fluid (% release)” value [3] was 64 (24 h) % release and the “Bioelution of Co in intestinal fluid / cobalt release (µg Co/g sample)” value [3, 7] was 139 000 (24 h) µg Co/g sample.

With Cobalt sulfide [CoS] the “Acute LD50 (mg Co/kg bw)” value ([1]; OECD 401 or 425) was greater than 7124 mg Co/kg bw, the “Acute LD50 (mg substance/kg bw)” value ([1]; OECD 401 or 425) was “exceeding 11 000 mg substance/kg bw” and the “Acute LD50 (mg substance/kg bw)” value ([1]; OECD 401 or 425, listed as Co Sulfide) was > 11 000 mg substance/kg bw. For the same compound, the “solubility in gastric fluid” value ([2]; simulated gastric fluid pH 1.5) was “poorly soluble”, the “Bioelution of Co … (% release), 2 h” value [2] was 0.58 % release and the “Bioelution of Co in gastric fluid / cobalt release (µg Co/g sample), 2 h” value ([2]; listed as Co Sulfide) was 3820 µg Co/g sample. The premature deaths ([6]; all doses) was “None of the exposed animals died prematurely”, the “NOAEL (F0 generation)” value ([6]; rats) was 648 mg Co/kg bw/day and the “NOAEL (F1 generation)” value ([6]; rats) was greater than 648 mg Co/kg bw/day. The “NOAEL (reproductive toxicity)” value ([6]; rats) was greater than 648 mg Co/kg bw/day, the “solubility in intestinal fluid” value ([3]; simulated intestinal fluid pH 7.4) was “poorly soluble” and the “Bioelution of Co in intestinal fluid (% release)” value [3] was 0.33 (24 h) % release. For the same compound, the “Bioelution of Co in intestinal fluid / cobalt release (µg Co/g sample)” value ([3]; listed as Co Sulfide) was 2180 (24 h) µg Co/g sample, the C max ([4]; females) was 2.01 µg/L and the K el ([4]; females) was 0.0464 h⁻¹. For the same compound, the “t 1/2” value ([4]; females) was 14.9 h, the “Bioavailability (relative)” value ([4]; females) was 0.09 (relative) % and the C max ([4]; males) was 2.01 µg/L. For the same compound, the K el ([4]; males) was 0.0413 h⁻¹, the “t 1/2” value ([4]; males) was 16.8 h and the “Bioavailability (relative)” value ([4]; males) was 0.08 (relative) %. For the same compound, the “Bioavailability calculated from AUC as % of CoCl2 IV AUC, average of m + f: relative bioavailability” value ([4]; rats) was “Relative bioavailability 0.08%” and the oral bioavailability ([4]; single oral bolus, rats, males and females not distinguished) was “below 0.1%”.
